Source: paper PMC8348142, “Antimicrobial Peptide Modifications against Clinically Isolated Antibiotic-Resistant Salmonella” (Molecules, 2021)
Converted amounts (≈) assume the structure as drawn. Marks after values point to notes of the source that are not given here. Square brackets hold non-standard residues; d marks the D form. Ends that are not written are not given here. Peptide text beside a SMILES is read from it.

How the values were obtained:
Assay type in all cases: cell-based
[1] = tested on: clinical Salmonella isolates; experiment: MIC, broth microdilution; conditions: for MIC: MHB, 5 × 10^5 CFU/mL, 37 °C, 18 h, duplicate
Procedure: (§1) All 12 isolates of Salmonella used in this study were clinical isolates and anonymous left-overs from laboratory diagnoses. They were maintained in a 20% glycerol (Sigma-Aldrich) stock at −80 °C and further cultured on Mueller-Hinton agar (MHA, Oxoid, Hampshire, UK) at 37 °C for 18 h to obtain single colonies for antimicrobial assays. This study was approved by the Ethics Committee of the Faculty of Tropical Medicine (Mahidol University, Bangkok, Thailand; MUTM-EXMPT 2017-007).
MIC was determined using the broth microdilution method described by Hancock with some modifications. Briefly, bacterial colonies grown from the MHA were prepared in MHB (Oxoid) as a 0.5 McFarland suspension (which is equal to 1 × 10^8 CFU/mL), and was further 200-fold diluted by the MHB (5 × 10^5 CFU/mL). The bacterial suspension (50 µL) was mixed with 2-fold serial dilutions of peptide (5.5 µL) achieving final concentrations of 256 to 1 µM using a round-bottom polypropylene (PP) 96-well plate (Greiner Bio-One). The plate was incubated at 37 °C for 18 h including incubating peptide free-bacteria as positive growth control, and MHB as negative growth control. After the incubation, the lowest concentration with no visible growth was defined as a MIC value. The assay was performed in a duplicate manner.

sheep red blood cells = experiment: Hemolytic activity assay; conditions: for HC50 (hemolytic concentration 50): concentration inducing 50% hemolysis of sRBCs, nonlinear regression, unit (µM); for percent hemolysis: 2% sRBCs in PBS, 37 °C, 1 h, OD540, triplicate mean; for concentration required for the initiation of hemolysis: sRBCs, 60 min, 256–1 µM tested
Procedure: The peptide toxicity to the mammalian system was screened based on the hemolytic test by measuring the hemoglobin released from ruptured red blood cells (RBCs). In this study, sheep RBCs (sRBCs) were employed. They were thrice washed and prepared as a suspension in phosphate-buffered saline (PBS, Oxoid). A suspension of 2% sRBCs was incubated with 2-fold serial dilutions of peptide (final concentrations; 256 to 1 µM in a total volume of 200 µL) at 37 °C for 1 h. The solutions of 0.1% (final concentration) Triton X-100 (Sigma-Aldrich) and PBS containing the peptide solvent were used instead of the peptides as the controls of hemolysis at 100% and 0%, respectively. Thereafter, the post-incubated suspensions were centrifuged (1000× g, 3 min) to pelletize residual sRBCs. The supernatants were then transferred into a flat-bottom PS 96-well plate and were measured the absorbance at 540 nm (OD540) by a microplate reader. The test was conducted in triplicate and the mean OD540 was used to calculate the hemolysis (%) as; ((OD540 (peptide) − OD540 (PBS + peptide solvent))/(OD540 (0.1% Triton X-100) − OD540 (PBS + peptide solvent))) × 100. The hemolytic concentration 50 (HC50), a concentration inducing 50% hemolysis, was determined.
The GraphPad Prism version 7.00 (GraphPad Software, La Jolla, CA, USA) was applied for all statistical analyses and data visualizations. Replicate quantitative results were calculated and shown as mean ± SD, unless otherwise specified. The HC50 values were determined using nonlinear regression analysis. The paired t-test and repeated measures one-way ANOVA with Tukey’s multiple comparison test were applied to compare between 2 groups and among 3 or more groups, respectively. The comparisons were considered as a statistically significant difference when a p-value < 0.05.

[2] = tested on: clinical Salmonella isolates; experiment: MBC, drop plate method, and MBC/MIC mode of action; conditions: for GM of MBC: geometric mean over 12 clinical Salmonella isolates; for MBC: drop plate on MHA from MIC plate, 37 °C, 18 h, thrice
Procedure: as §1
The plate derived from the MIC assay was immediately tested for the MBC using a drop plate method. A volume of 10 µL of the culture from individual wells at MIC, 2MIC, and 4MIC was dropped on MHA plates. […] The experiment was thrice performed.
In order to determine whether the peptides have bacteriostatic or bactericidal activity, a ratio of MBC to MIC (MBC/MIC) was applied. The ratio >4 was indicative of bacteriostatic peptide, and ≤4 was inferred as bactericidal peptide.

[3] = isolate 5 (Enteritidis, blood; resistant AMP, SXT, KZ)
[4] = isolate 7 (Typhimurium, blood; resistant AMP, CN, TE, NA, SXT)
[5] = isolate 55 (Typhimurium, blood; resistant AMP, SXT, C, TE)
[6] = isolate 61 (Enteritidis, blood; resistant AMP, TE, NA, SXT)
[7] = isolate 69 (Typhimurium, stool; resistant AMP)
[8] = isolate 76 (Enteritidis, CSF; resistant NA)
[9] = isolate 78 (Enteritidis, blood; resistant TE, CIP, NA, SXT)
[10] = isolate 107 (Typhimurium, stool; susceptible)
[11] = isolate 11 (I 1,4:i:-, blood; resistant AMP, TE, NA, SXT, C)
[12] = isolate 18 (Stanley, urine; resistant TE, SXT, C)
[13] = isolate 26 (Typhimurium, urine; resistant TZP, TE, NA)
[14] = isolate 27 (Typhimurium, stool; resistant AMP, TE, NA, SXT, CIP)

LLKLFFPFLETGE [Pug-1, reference compound]
MIC [1, 3]: > 256 µM
MIC [1, 4]: > 256 µM
MIC [1, 5]: > 256 µM
MIC [1, 6]: > 256 µM
MIC [1, 7]: > 256 µM
MIC [1, 8]: > 256 µM
MIC [1, 9]: > 256 µM
MIC [1, 10]: > 256 µM

KLKLLLLLKL [KLK1, reference compound]
MIC [1, 3]: > 256 µM
MIC [1, 4]: > 256 µM
MIC [1, 5]: > 256 µM
MIC [1, 6]: > 256 µM
MIC [1, 7]: > 256 µM
MIC [1, 8]: > 256 µM
MIC [1, 9]: > 256 µM
MIC [1, 10]: > 256 µM

FIGAIARLLSK [BmKn-22, reference compound]
MIC [1, 3]: > 256 µM
MIC [1, 4]: > 256 µM
MIC [1, 5]: > 256 µM
MIC [1, 6]: > 256 µM
MIC [1, 7]: > 256 µM
MIC [1, 8]: > 256 µM
MIC [1, 9]: > 256 µM
MIC [1, 10]: > 256 µM

KLKLLLLLKLK-NH2 [KLK, reference compound]
MIC [1, 3]: > 256 µM
MIC [1, 4]: > 256 µM
MIC [1, 5]: > 256 µM
MIC [1, 6]: > 256 µM
MIC [1, 7]: > 256 µM
MIC [1, 8]: > 256 µM
MIC [1, 9]: > 256 µM
MIC [1, 10]: > 256 µM

FFFIRRIARLLRRIF-NH2 [2F-Kn2-5R-NH2]
MIC [1, 3]: 4 µM
MIC [1, 4]: 4 µM
MIC [1, 11]: 4 µM
MIC [1, 12]: 8 µM
MIC [1, 13]: 8 µM
MIC [1, 14]: 8 µM
MIC [1, 5]: 8 µM
MIC [1, 6]: 4 µM
MIC [1, 7]: 4 µM
MIC [1, 8]: 8 µM
MIC [1, 9]: 8 µM
MIC [1, 10]: 4 µM
HC50 (hemolytic concentration 50) (sheep red blood cells): 5.60 µM
percent hemolysis (sheep red blood cells; peptide 1 µM): 6.1%
percent hemolysis (sheep red blood cells; peptide 2 µM): 15%
percent hemolysis (sheep red blood cells; peptide 4 µM): 33.7 * %
percent hemolysis (sheep red blood cells; peptide 8 µM): 61.6 * %
percent hemolysis (sheep red blood cells; peptide 16 µM): 96.2%
percent hemolysis (sheep red blood cells; peptide 32 µM): 97.6%
percent hemolysis (sheep red blood cells; peptide 64 µM): 97.9%
percent hemolysis (sheep red blood cells; peptide 128 µM): 99.8%
percent hemolysis (sheep red blood cells; peptide 256 µM): 100%
concentration required for the initiation of hemolysis (sheep red blood cells): 1 µM
GM of MBC [2]: 5.66 µM
MBC ([2]; isolate 5 (Enteritidis)): 4 µM
MBC ([2]; isolate 7 (Typhimurium)): 4 µM
MBC ([2]; isolate 11 (I 1,4:i:-)): 4 µM
MBC ([2]; isolate 18 (Stanley)): 8 µM
MBC ([2]; isolate 26 (Typhimurium)): 8 µM
MBC ([2]; isolate 27 (Typhimurium)): 8 µM
MBC ([2]; isolate 55 (Typhimurium)): 8 µM
MBC ([2]; isolate 61 (Enteritidis)): 4 µM
MBC ([2]; isolate 69 (Typhimurium)): 4 µM
MBC ([2]; isolate 76 (Enteritidis)): 8 µM
MBC ([2]; isolate 78 (Enteritidis)): 8 µM
MBC ([2]; isolate 107 (Typhimurium)): 4 µM

CC[C@@H](C)[C@@H](NC(=O)[C@H](N)Cc1ccccc1)C(=O)N[C@H](CCCNC(=N)N)C(=O)N[C@H](CCCNC(=N)N)C(=O)N[C@@H](C(=O)N[C@H](C)C(=O)N[C@H](CCCNC(=N)N)C(=O)N[C@H](CC(C)C)C(=O)N[C@H](CC(C)C)C(=O)N[C@H](CCCNC(=N)N)C(=O)N[C@H](CCCNC(=N)N)C(=O)N[C@@H](C(=O)N[C@H](Cc1ccccc1)C(N)=O)[C@H](C)CC)[C@H](C)CC [dKn2-5R-NH2] (H-[dF][dI][dR][dR][dI][dA][dR][dL][dL][dR][dR][dI][dF]-NH2)
MIC [1, 3]: 8 µM (≈ 13.8 µg/mL)
MIC [1, 4]: 8 µM (≈ 13.8 µg/mL)
MIC [1, 11]: 8 µM (≈ 13.8 µg/mL)
MIC [1, 12]: 8 µM (≈ 13.8 µg/mL)
MIC [1, 13]: 8 µM (≈ 13.8 µg/mL)
MIC [1, 14]: 4 µM (≈ 6.92 µg/mL)
MIC [1, 5]: 4 µM (≈ 6.92 µg/mL)
MIC [1, 6]: 4 µM (≈ 6.92 µg/mL)
MIC [1, 7]: 4 µM (≈ 6.92 µg/mL)
MIC [1, 8]: 8 µM (≈ 13.8 µg/mL)
MIC [1, 9]: 8 µM (≈ 13.8 µg/mL)
MIC [1, 10]: 4 µM (≈ 6.92 µg/mL)
HC50 (hemolytic concentration 50) (sheep red blood cells): 199.20 µM
percent hemolysis (sheep red blood cells; peptide 1 µM): 0%
percent hemolysis (sheep red blood cells; peptide 2 µM): 0%
percent hemolysis (sheep red blood cells; peptide 4 µM): 0.4 * %
percent hemolysis (sheep red blood cells; peptide 8 µM): 0.5 * %
percent hemolysis (sheep red blood cells; peptide 16 µM): 0.9%
percent hemolysis (sheep red blood cells; peptide 32 µM): 2.5%
percent hemolysis (sheep red blood cells; peptide 64 µM): 8.7%
percent hemolysis (sheep red blood cells; peptide 128 µM): 23.6%
percent hemolysis (sheep red blood cells; peptide 256 µM): 65.6%
concentration required for the initiation of hemolysis (sheep red blood cells): 4 µM
GM of MBC [2]: 5.99 µM
MBC ([2]; isolate 5 (Enteritidis)): 8 µM (≈ 13.8 µg/mL)
MBC ([2]; isolate 7 (Typhimurium)): 8 µM (≈ 13.8 µg/mL)
MBC ([2]; isolate 11 (I 1,4:i:-)): 8 µM (≈ 13.8 µg/mL)
MBC ([2]; isolate 18 (Stanley)): 8 µM (≈ 13.8 µg/mL)
MBC ([2]; isolate 26 (Typhimurium)): 8 µM (≈ 13.8 µg/mL)
MBC ([2]; isolate 27 (Typhimurium)): 4 µM (≈ 6.92 µg/mL)
MBC ([2]; isolate 55 (Typhimurium)): 4 µM (≈ 6.92 µg/mL)
MBC ([2]; isolate 61 (Enteritidis)): 4 µM (≈ 6.92 µg/mL)
MBC ([2]; isolate 69 (Typhimurium)): 4 µM (≈ 6.92 µg/mL)
MBC ([2]; isolate 76 (Enteritidis)): 8 µM (≈ 13.8 µg/mL)
MBC ([2]; isolate 78 (Enteritidis)): 8 µM (≈ 13.8 µg/mL)
MBC ([2]; isolate 107 (Typhimurium)): 4 µM (≈ 6.92 µg/mL)

FPSFLVGR [Pug-4, reference compound]
MIC [1, 3]: > 256 µM
MIC [1, 4]: > 256 µM
MIC [1, 5]: > 256 µM
MIC [1, 6]: > 256 µM
MIC [1, 7]: > 256 µM
MIC [1, 8]: > 256 µM
MIC [1, 9]: > 256 µM
MIC [1, 10]: > 256 µM

FIGAIARLLSKIF [BmKn-2, reference compound]
MIC values, range over isolates ([1]; eight clinical Salmonella isolates, peptide 256–1 µM tested): 64 to 256 µM
MIC [1, 3]: 128 µM
MIC [1, 4]: 128 µM
MIC [1, 5]: 256 µM
MIC [1, 6]: 256 µM
MIC [1, 7]: 256 µM
MIC [1, 8]: 64 µM
MIC [1, 9]: 128 µM
MIC [1, 10]: 64 µM
